Laboratory results as given in PMC9486541, “Design, synthesis and cytotoxic evaluation of novel betulonic acid-diazine derivatives as potential antitumor agents” (Frontiers in Chemistry, 2022).
Read-outs that look alike come from different tables or passages of the source.

Key:
MDCK = experiment: MTT assay, MDCK normal cell line; assay type: cell-based, canine; conditions: 72 h incubation, normal cell line, read-out: Half maximal inhibitory concentration (IC50) values, MDCK
Description: (§1) The human hepatocellular carcinoma cell line (HepG2), human hepatocellular carcinoma cell line (Bel-7402), human cervical cancer cell line (Hela), human breast adenocarcinoma cell line (MCF-7) and Madin-Darby canine kidney cell line (MDCK) were obtained from the Chinese Academy of Medical Sciences and Peking Union Medical College. Cultures were maintained as monolayer in RPMI-1640/DMEM supplemented with 10% (v/v) fetal bovine serum (FBS) and 1% (v/v) penicillin/streptomycin (Thermo Technologies, New York, NY, United States) under a humidified atmosphere containing 5% CO2 at 37°C. The BoA derivatives and positive control drugs (BoA and DDP) under study were dissolved in DMSO (Sigma, St. Louis, MO, United States) and added at required concentrations to the cell culture. Cells incubated without the preparations served as the control.
(§2) The antitumor activity was assessed by MTT assay, as previously reported ([Fang et al., 2018]). Each tested compound and positive control drugs were dissolved in DMSO and diluted with the medium to the test concentrations, and the final concentration of DMSO in the culture medium was controlled at less than 0.5% (v/v). Briefly, cells were cultured at 37°C and dispersed in replicates in 96-well plates with HepG2, Bel-7402, HeLa, MCF-7 and MDCK for 24 h. Fresh medium along with compounds (BoAA-BoAE, BoA2A-BoA2G, BoA3A-BoA3G, BoA4A-BoA4G) at different concentrations was then added to individual wells and incubated for 72 h, with BoA and DDP as the positive control. Experiments on FXR expression were separated into three groups: Control (PBS), BoA2C (8 μM), and BoA2C (8 μM) + DY268 (10 μM) ([Giordano et al., 2016]), with three repeating wells in each. In separate wells, BoA2C and DY268 were introduced and cultured for 72 h. After 72 h, the cell was incubated with MTT solution (0.5 mg/ml) for an additional 4 h at 37°C. The produced formazan crystals were solubilized with DMSO, and the optical density of solution was measured at 570 nm using a plate reader (BIORAD 550 spectrophotometer, Bio-rad Life Science Development Ltd., Beijing, China). Wells without drugs were used to be blanks. The IC50 values were defined as the concentration of compounds that produced a 50% proliferation inhibition of surviving cells and calculated using the Graph Pad Prism 5. The inhibitory rate was calculated in the following Equation 1, where OD is the optical density: % inhibition=[1−(OD Sample group−OD Blank group)/(OD Control group−OD Blank group)]×100% (1)

Bel-7402 = experiment: MTT assay, Bel-7402 cells; assay type: cell-based, human; conditions: read-out: Half maximal inhibitory concentration (IC50) values, Bel-7402
Description: as §1, §2

Hela = experiment: MTT assay, Hela cells; assay type: cell-based, human; conditions: 72 h incubation, read-out: Half maximal inhibitory concentration (IC50) values, Hela
Description: as §1, §2

HepG2 = experiment: MTT assay, HepG2 cells; assay type: cell-based, human; conditions: read-out: Half maximal inhibitory concentration (IC50) values, HepG2
Description: as §1, §2

MCF-7 = experiment: MTT assay, MCF-7 cells; assay type: cell-based, human; conditions: read-out: Half maximal inhibitory concentration (IC50) values, MCF-7
Description: as §1, §2

[1] = Homo sapiens, Bel-7402, 72 h incubation
[2] = Homo sapiens, HepG2, 72 h incubation
[3] = Homo sapiens, MCF7, 72 h incubation

Row | SMILES | melting point | IC50 (MDCK; Canis lupus familiaris, MDCK) | IC50 (Bel-7402; [1]) | IC50 (Hela; Homo sapiens, HeLa) | IC50 (HepG2; [2]) | IC50 (MCF-7; [3]) | IC50 (MDCK) | IC50 (Bel-7402; 72 h incubation) | IC50 (Hela) | IC50 (HepG2; 72 h incubation) | IC50 (MCF-7; 72 h incubation)
1 | C=C(C)[C@@H]1CC[C@]2(C(=O)OCCOC(=O)c3cnccn3)CC[C@]3(C)[C@H](CC[C@@H]4[C@@]5(C)CCC(=O)C(C)(C)[C@@H]5CC[C@]43C)[C@@H]12 [BoA2A, (Pyrazin-2-acyloxy)-ethyl-3-oxolup-20(29)-en-28-oate] | 85 to 87 °C | > 30 µM | 8.76 ± 0.84 µM | 25 ± 0.97 µM | 13.7 ± 0.25 µM | 9.86 ± 0.36 µM |  |  |  |  | 
2 | C=C(C)[C@@H]1CC[C@]2(C(=O)OCCOC(=O)c3nccnc3C)CC[C@]3(C)[C@H](CC[C@@H]4[C@@]5(C)CCC(=O)C(C)(C)[C@@H]5CC[C@]43C)[C@@H]12 [BoA2B, (3-Methylpyrazin-2-acyloxy)-ethyl-3-oxolup-20(29)-en-28-oate] | 60 to 62 °C | > 30 µM | 10.1 ± 1.4 µM | 15.5 ± 0.81 µM | 13.4 ± 1.82 µM | > 30 µM |  |  |  |  | 
3 | C=C(C)[C@@H]1CC[C@]2(C(=O)OCCOC(=O)c3cncc(C)n3)CC[C@]3(C)[C@H](CC[C@@H]4[C@@]5(C)CCC(=O)C(C)(C)[C@@H]5CC[C@]43C)[C@@H]12 [BoA2D, (6-Methylpyrazin-2-acyloxy)-ethyl-3-oxolup-20(29)-en-28-oate] | 139 to 141 °C | > 30 µM | 8.22 ± 0.43 µM | 14.9 ± 1.84 µM | 7.32 ± 2.88 µM | 8.32 ± 1.28 µM |  |  |  |  | 
4 | C=C(C)[C@@H]1CC[C@]2(C(=O)OCCOC(=O)c3ccncn3)CC[C@]3(C)[C@H](CC[C@@H]4[C@@]5(C)CCC(=O)C(C)(C)[C@@H]5CC[C@]43C)[C@@H]12 [BoA2F] | 72 to 74 °C | 12.5 ± 1.22 µM | > 30 µM | 15.2 ± 1.07 µM | > 30 µM | 29.7 ± 0.37 µM |  |  |  |  | 
5 | C=C(C)[C@@H]1CC[C@]2(C(=O)OCCOC(=O)c3ccnnc3)CC[C@]3(C)[C@H](CC[C@@H]4[C@@]5(C)CCC(=O)C(C)(C)[C@@H]5CC[C@]43C)[C@@H]12 [BoA2G] | 130 to 132 °C | 13 ± 0.46 µM | 24.8 ± 2.43 µM | 5.81 ± 0.24 µM | > 30 µM | > 30 µM |  |  |  |  | 
6 | C=C(C)[C@@H]1CC[C@]2(C(=O)OCCCOC(=O)c3cnccn3)CC[C@]3(C)[C@H](CC[C@@H]4[C@@]5(C)CCC(=O)C(C)(C)[C@@H]5CC[C@]43C)[C@@H]12 [BoA3A, (Pyrazin-2-acyloxy)-propyl-3-oxolup-20(29)-en-28-oate] | 74 to 76 °C | > 30 µM | 6.09 ± 0.12 µM | 20.4 ± 0.56 µM | 4.82 ± 0.3 µM | 6.85 ± 1.82 µM |  |  |  |  | 
7 | C=C(C)[C@@H]1CC[C@]2(C(=O)OCCCOC(=O)c3nccnc3C)CC[C@]3(C)[C@H](CC[C@@H]4[C@@]5(C)CCC(=O)C(C)(C)[C@@H]5CC[C@]43C)[C@@H]12 [BoA3B, (3-Methylpyrazin-2-acyloxy)-propyl-3-oxolup-20(29)-en-28-oate] | 54 to 55 °C | > 30 µM | 14.2 ± 2.1 µM | 15.7 ± 2.15 µM | 13.2 ± 1.2 µM | 27.9 ± 1.06 µM |  |  |  |  | 
8 | C=C(C)[C@@H]1CC[C@]2(C(=O)OCCCOC(=O)c3cnc(C)cn3)CC[C@]3(C)[C@H](CC[C@@H]4[C@@]5(C)CCC(=O)C(C)(C)[C@@H]5CC[C@]43C)[C@@H]12 [BoA3C, (5-Methylpyrazin-2-acyloxy)-propyl-3-oxolup-20(29)-en-28-oate] | 57 to 58 °C | > 30 µM | 9.37 ± 1.31 µM | 30 ± 2.65 µM | > 30 µM | 10 ± 0.19 µM |  |  |  |  | 
9 | C=C(C)[C@@H]1CC[C@]2(C(=O)OCCCOC(=O)c3cncc(C)n3)CC[C@]3(C)[C@H](CC[C@@H]4[C@@]5(C)CCC(=O)C(C)(C)[C@@H]5CC[C@]43C)[C@@H]12 [BoA3D, (6-Methylpyrazin-2-acyloxy)-propyl-3-oxolup-20(29)-en-28-oate] | 59 to 60 °C | 17 ± 3.01 µM | 6.42 ± 0.66 µM | 9.5 ± 0.28 µM | 8.65 ± 0.6 µM | 5.6 ± 0.25 µM |  |  |  |  | 
10 | C=C(C)[C@@H]1CC[C@]2(C(=O)OCCCCOC(=O)c3cnc(C)cn3)CC[C@]3(C)[C@H](CC[C@@H]4[C@@]5(C)CCC(=O)C(C)(C)[C@@H]5CC[C@]43C)[C@@H]12 [BoA4C, (5-Methylpyrazin-2-acyloxy)-butyl-3-oxolup-20(29)-en-28-oate] |  | > 30 µM | 5.53 ± 0.46 µM | 17.9 ± 0.45 µM | 22.2 ± 1.76 µM | 9.88 ± 1.49 µM |  |  |  |  | 
11 | C=C(C)[C@@H]1CC[C@]2(C(=O)OCCCCOC(=O)c3cncc(C)n3)CC[C@]3(C)[C@H](CC[C@@H]4[C@@]5(C)CCC(=O)C(C)(C)[C@@H]5CC[C@]43C)[C@@H]12 [BoA4D, (6-Methylpyrazin-2-acyloxy)-butyl-3-oxolup-20(29)-en-28-oate] |  | > 30 µM | 16.3 ± 0.9 µM | 15.7 ± 2.15 µM | > 30 µM | > 30 µM |  |  |  |  | 
12 | C=C(C)[C@@H]1CC[C@]2(C(=O)OCCCCOC(=O)c3ccncn3)CC[C@]3(C)[C@H](CC[C@@H]4[C@@]5(C)CCC(=O)C(C)(C)[C@@H]5CC[C@]43C)[C@@H]12 [BoA4F] |  | 27.22 ± 0.25 µM | > 30 µM | 25.9 ± 0.57 µM | 30.2 ± 1.51 µM | 24.5 ± 5.17 µM |  |  |  |  | 
13 | C=C(C)[C@@H]1CC[C@]2(C(=O)OCCCCOC(=O)c3ccnnc3)CC[C@]3(C)[C@H](CC[C@@H]4[C@@]5(C)CCC(=O)C(C)(C)[C@@H]5CC[C@]43C)[C@@H]12 [BoA4G, (Pyridazin-2-acyloxy)-butyl-3-oxolup-20(29)-en-28-oate] |  | 16.9 ± 1.03 µM | 19.4 ± 1.2 µM | 7.46 ± 1.99 µM | 29.27 ± 0.22 µM | 12.8 ± 0.15 µM |  |  |  |  | 
14 | C=C(C)[C@@H]1CC[C@]2(C(=O)O)CC[C@]3(C)[C@H](CC[C@@H]4[C@@]5(C)CCC(=O)C(C)(C)[C@@H]5CC[C@]43C)[C@@H]12 [BoA, betulonic acid] |  | > 30 µM | > 30 µM | 27 ± 1.06 µM | > 30 µM | > 30 µM |  |  |  |  | 
15 | C=C(C)[C@@H]1CC[C@]2(C(=O)OCc3cnccn3)CC[C@]3(C)[C@H](CC[C@@H]4[C@@]5(C)CCC(=O)C(C)(C)[C@@H]5CC[C@]43C)[C@@H]12 [BoAA, Pyrazin-2-ylmethyl-3-oxolup-20(29)-en-28-oate] |  | > 30 µM | 8.16 ± 2.08 µM | 18.3 ± 1.63 µM | 13.5 ± 1.8 µM | 15.7 ± 0.55 µM |  |  |  |  | 
16 | N.N.[Cl][Pt][Cl] [DDP, cisplatin, reference compound] |  |  |  |  |  |  | 13.7 ± 1.45 µM | 8.86 ± 1.32 µM | 9.84 ± 2.54 µM | 5.23 ± 1.03 µM | 6.98 ± 0.32 µM
